According to patent publication US9687480B2, “Chiral 1-(4-methylphenylmethyl)-5-oxo-{N-[(3-t-butoxycarbonyl-aminomethyl)]-piperidin-1-yl)-pyrrolidine as inhibitors of collagen induced platelet activation and adhesion” (Council of Scientific & Industrial Research, priority 2011, dated 2017):

Assays:
hyperlipidemic hamsters [1] = experiment: Arterio-venous shunt model in hyperlipidemic hamsters; assay type: in vivo; conditions: hyperlipidemic hamsters; compound 6 at 10 μM/kg
mouse platelets = experiment: Platelet adhesion over collagen matrix (mice, ex vivo); assay type: in vivo; conditions: oral route, compound 6 10, 30, 100 μM/kg, aspirin 100 μM/kg
Source text: FIG. 4b: Adhesion of mouse platelets on collagen matrix as observed under fluorescence microscope 40× (ex vivo method). Different pictures show the different treatment performed. Washed murine platelets (2×10^6/ml) were obtained from animals pretreated with the compound (compound 6) (different doses) and seeded on BSA or Collagen (fibrillar) coated cover slips (A, B). Platelets from untreated animals were allowed to adhere on uncoated and BSA coated cover slip respectively to delineate the possibility of non specific binding. C, D. control platelets were adhered on collagen coated cover slip (control). E. F&G. Platelets obtained from animals pre-treated with compound 6 (10 μM/kg, 30 μM/kg & 100 μM/kg) respectively were adhered on collagen coated cover slip. H, I. Platelets from Aspirin (100 μM/kg) & Clopidogrel treated (100 μM/kg) animals resp. (standard Drugs) and adhered on collagen coated cover slip (n=5, 5 animals/group/experiment).

mice = experiment: Tail bleeding time in mice; assay type: in vivo; conditions: aspirin 170 μM/kg, clopidogrel 30 μM/kg
Protocol: Bleeding time in mice was evaluated by the method of Dejana et al, (Dejana E, Callioni A, Quintana A, Gaetano G. Bleeding time in laboratory animals. II—A comparison of different assay conditions in rats. […] The time elapsed from the tip incision to the stoppage of bleeding was determined as the bleeding time. The preferred compounds, aspirin (30 mg/kg) or vehicle was given orally 60 min prior to the tail incision in a group of 5 mice each.

[2] = system: hamster whole blood (Thrombin 1 U/ml); experiment: Whole blood aggregation in hyperlipidemic hamsters (ex vivo), thrombin induced; conditions: HCHF hamsters ex vivo; aspirin 100 μM/kg, clopidogrel 30 μM/kg
hamster platelets = experiment: Platelet adhesion on collagen coated surface (hyperlipidemic hamster model, ex vivo); assay type: in vivo, hamsters; conditions: hyperlipidemic hamsters, ex vivo
Protocol: Platelet adhesion to collagen was measured in polystyrene 96-well micro titer plates. Micro titer plates were coated with insoluble equine tendon native fibrillar type I collagen (Chrono-Log Corp. Havertown, USA), 2 μg/well in 5 mM acetic acid (Tandon N N, Ockenhouse C F, Greco […]. Adhesive functions of platelet lacking GPIV (CD36). Blood 1991; 78: 2809-13) overnight at 4° C. The unoccupied protein binding sites on the wells were blocked with 0.5% BSA in Tyrode's-HEPES buffer (136.7 mM NaCl, 13.8 mM NaHCO3. 0.36 mM NaH2PO4.H2O, 2.6 mM KCl, 1.0 mM MgCl2.6H2O, 5.5 mM glucose, pH 7.4) at room temperature for 1 hour, and then rinsed once with PBS. Washed platelets were suspended in the Tyrode's-HEPES buffer and added to the wells (2×10^7 cells/well) for 1 h at room temperature. After three washes with PBS, the number of adherent platelets was evaluated colorimetrically (Bellavite P., Andrioli G., Gizzo P., Arigliano P., Chirumbolo […] colorimetric method for the measurement of platelet adhesion in microtiter plates. Anal. Blochem. 1994; 216:444-450). Briefly, 150 μl of a 0.1 M citrate buffer (pH 5.4), containing 5 mM p-nitrophenyl phosphate and 0.1% TritonX-100 was added to the wells after washing. After incubation for 30 minutes at 25° C. in the absence of ambient light, colour was developed by the addition of 100 μl of 2N NaOH and the absorbance at 405 nm was read using a microplate reader (Powerware XS, Biotek, USA).

[3] = system: hamster whole blood (ADP 10 μM); experiment: Whole blood aggregation in hyperlipidemic hamsters (ex vivo), ADP induced; conditions: HCHF hamsters ex vivo, aspirin 100 μM/kg, clopidogrel 30 μM/kg
[4] = system: hamster whole blood (Collagen 2.5 μg/ml); experiment: Whole blood aggregation in hyperlipidemic hamsters (ex vivo), collagen induced; conditions: HCHF hamsters ex vivo, aspirin 100 μM/kg, clopidogrel 30 μM/kg
hyperlipidemic hamsters [5] = experiment: FeCl3 induced thrombosis in hyperlipidemic hamsters; assay type: in vivo; conditions: HCHF fed hamsters
Protocol: (§1) HCHF treated hamsters were anesthetized by urethane (1.25 g/kg, i.p.). The carotid artery was carefully dissected and a pulsed Doppler Probe (DBF-120A-CPx, CBI-8000, Crystal Biotech. USA) was placed around it to record the blood flow velocity and potency of the blood vessels. The carotid artery thrombosis was induced by FeCl3 as follows: a square (1×1 mm) of Whatman Chromatography paper was immersed in 30% FeCl3 solution for 5 min and placed on the carotid artery as described earlier (Kurz K D, Main B W, Sandusky G E. Rat model of arterial thrombosis induced by ferric chloride. Thromb Res 1990; 60(4):269-80). Thrombosis was monitored as the reduction in carotid artery blood flow. The time at which the blood-flow velocity was decreased to zero was recorded as the total of occlusion of the vessel.

rats = experiment: FeCl3 induced carotid artery thrombosis in rats; assay type: in vivo; conditions: rats; compound 1 at the same dose as compound 6; aspirin at a very high dose
Protocol: as §1, with “Male SD rats” for “HCHF treated hamsters”, “Biotech,” for “Biotech.”, “patency” for “potency”, “20%” for “30%”, “occlusion (TTO)” for “occlusion”, “carotid artery. […] (Ferric Chloride induced thrombosis (FIG. 7))” for “vessel.”

SMILES: CC(=O)Oc1ccccc1C(=O)O [aspirin, reference compound]
- thrombus weight (hyperlipidemic hamsters [1]): significantly reduced
- platelet adhesion (ex vivo) over collagen surface (mouse platelets): did not exhibit any inhibitory effect
- bleeding time, standard drugs (mice): significantly prolonged
- thrombin induced whole blood platelet aggregation [2]: can only inhibit ADP and Thrombin
- platelet adhesion over collagen coated surface (hamster platelets): no alteration
- ADP induced whole blood platelet aggregation [3]: can only inhibit ADP and Thrombin
- collagen induced whole blood platelet aggregation [4]: but not collagen induced aggregation
- collagen induced whole blood platelet aggregation ([4]; listed as Aspirin): reduced platelet aggregation in response to collagen
- time to occlusion (TTO) (hyperlipidemic hamsters [5]): significantly prolonged
- time to occlude the carotid artery (TTO) (rats): remained ineffective

SMILES: COC(=O)[C@H](c1ccccc1Cl)N1CCc2sccc2C1 [clopidogrel, reference compound]
- thrombus weight (hyperlipidemic hamsters [1]): significantly reduced
- platelet adhesion over collagen coated surface (hamster platelets): significant reduction
- ADP induced whole blood platelet aggregation [3]: can only inhibit ADP induced aggregation
- ADP induced whole blood platelet aggregation ([3]; listed as Clopidogrel): inhibited ADP and collagen induced platelet aggregation
- collagen induced whole blood platelet aggregation [4]: inhibited ADP and collagen induced platelet aggregation
- time to occlusion (TTO) (hyperlipidemic hamsters [5]): significantly prolonged
